Measurements from patent US9096591B2, “Tetracyclic compounds” (Medivation Technologies, Inc., priority 2007, dated 2015).

Tests used:
[1] = biological target: T1, Serotonin (5-Hydroxytryptamine) 5-HT7 (Homo sapiens, UniProt P34969); assay: Serotonin 5-HT7 radioligand binding ([3H]LSD); design: Inhibition of ligand binding, Ser. 5-HT7: concentration or dose not given beside the values; details: percent inhibition of specific binding
T1 construct: expressed in transfected cells; host or cells: CHO cells
T1 sequence (P34969 whole entry): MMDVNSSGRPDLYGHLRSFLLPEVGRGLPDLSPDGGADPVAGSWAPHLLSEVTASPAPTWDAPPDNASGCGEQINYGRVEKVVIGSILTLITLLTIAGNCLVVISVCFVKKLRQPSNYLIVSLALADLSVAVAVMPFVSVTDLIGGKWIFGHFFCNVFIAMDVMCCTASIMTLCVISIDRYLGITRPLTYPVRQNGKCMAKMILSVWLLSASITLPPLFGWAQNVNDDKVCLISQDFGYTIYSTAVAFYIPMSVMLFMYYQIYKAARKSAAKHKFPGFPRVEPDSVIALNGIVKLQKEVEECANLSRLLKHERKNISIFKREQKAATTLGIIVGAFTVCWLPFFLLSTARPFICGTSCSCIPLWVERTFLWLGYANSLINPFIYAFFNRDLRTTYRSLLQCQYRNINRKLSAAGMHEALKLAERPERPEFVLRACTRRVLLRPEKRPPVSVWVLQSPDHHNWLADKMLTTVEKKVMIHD
Protocol: Lysergic acid diethylamide (LSD) for 2 hours at 25° C. […] Receptor proteins were filtered and washed, the filters were then counted to determine [^3H]LSD specifically bound. […] Biochemical assay results are presented as the percent inhibition of specific binding in Table 6.

rat brain mitochondria = assay: Mitochondrial membrane potential (safranine test); type: biochemical, Wistar rats; details: compounds did react with safranine in buffer without mitochondria
Protocol: The same experimental conditions were used for the assessment of alterations of the mitochondrial membrane potential, except that safranine was included in incubation medium at a final concentration of 10 mkM and succinate was added before the compounds of the invention. This concentration of safranine was determined before hand as the optimal compromise between signal/baseline ratio and interference of safranine itself with swelling induced by Ca/Pi (safranine tended to enhance Ca/Pi-induced swelling at concentrations above 20 mkM). Changes in the status of the mPT pore were assessed spectrophotometrically at 554 and 524 nm in a cuvette in a Beckman DU 640 spectrophotometer. A554-524 represents the characteristics of mitochondrial potential and A554-characteristics of mitochondrial swelling.

C57BL/6 mice = details: 0.01-0.1 mg/kg; previously shown; cited from earlier work

For `CN1CCc2c(c3cc(Cl)ccc3n2CCc2ccc(C(F)(F)F)nc2)C1` [Compound 250], the “Inhibition of ligand binding, Ser. 5-HT7” value [1] was 93%.
For `CN1CCc2c(c3cc(Cl)ccc3n2CCc2nc(-c3ccccc3)cs2)C1` [Compound C1-8], the “depolarizing activity in safranine test” value (rat brain mitochondria) was “depolarizing activity”.
In the case of `Cc1ccc2c(c1)c1c(n2CCc2ccc(C)nc2)CCN(C)C1` [Dimebon, dimebon, reference compound], the “effect on memory in the recognition test of a known object in a new location” value (C57BL/6 mice) is given as “dose-dependent activating effect on memory”.
